Target: T1, ER (Homo sapiens, UniProt P03372)
T1 construct: host or cells: T47D and MCF7 human breast cancer cells
T1 sequence (P03372 1-595): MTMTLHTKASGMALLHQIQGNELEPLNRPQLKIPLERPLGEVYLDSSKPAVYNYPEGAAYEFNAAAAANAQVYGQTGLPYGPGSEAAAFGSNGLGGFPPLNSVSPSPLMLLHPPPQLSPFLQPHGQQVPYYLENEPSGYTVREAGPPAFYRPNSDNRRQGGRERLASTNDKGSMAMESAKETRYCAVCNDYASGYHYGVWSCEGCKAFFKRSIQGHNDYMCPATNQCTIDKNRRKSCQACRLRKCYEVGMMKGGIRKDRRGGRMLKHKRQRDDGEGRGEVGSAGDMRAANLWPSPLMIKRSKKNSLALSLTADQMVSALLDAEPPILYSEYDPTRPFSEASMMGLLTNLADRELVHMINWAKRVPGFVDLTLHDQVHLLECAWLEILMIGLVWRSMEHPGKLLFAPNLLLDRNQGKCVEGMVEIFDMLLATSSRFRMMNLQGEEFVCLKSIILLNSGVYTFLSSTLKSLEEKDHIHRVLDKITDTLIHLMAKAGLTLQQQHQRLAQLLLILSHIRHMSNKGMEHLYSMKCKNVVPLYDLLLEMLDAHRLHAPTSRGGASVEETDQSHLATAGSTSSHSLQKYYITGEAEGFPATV
Assay: ER degradation activity, in-cell western blot analysis in T47D cells
Assay type: cell-based
Details: 16 hours, Table A does not say which cell line (T47D or MCF7), read-out: Potency (DC50)
Procedure, shortened: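 ER protein remaining after 16 h compound exposure is quantified in T47D cells by in-cell western, with a no-primary-antibody background control. Values are percentages of DMSO-treated signal.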

DC50 [nM] | SMILES
> 100 | O=C1CCC(N2C(=O)c3cc4c(cc3C2=O)CN(CC(=O)N2CC3(CCN(c5ccc([C@@H]6c7ccc(O)cc7CC[C@@H]6c6ccccc6)cc5F)CC3)C2)C4)C(=O)N1 (mixture of isomers) [E 173, Rac-2-(2,6-dioxopiperidin-3-yl)-6-(2-(7-(2-fluoro-4-((1R,2S)-6-hydroxy-2-phenyl-1,2,3,4-tetrahydronaphthalen-1-yl)phenyl)-2,7-diazaspiro[3.5]nonan-2-yl)-2-oxoethyl)-6,7-dihydropyrrolo[3,4-f]isoindole-1,3(2H,5H)-dione]
10 to 100 | O=C1CCC(N2C(=O)c3cc4c(cc3C2=O)CN(CC(=O)N2CC3(CCN(c5ccc([C@@H]6c7ccc(O)cc7CC[C@@H]6c6ccccc6)c(F)c5)CC3)C2)C4)C(=O)N1 (mixture of isomers) [E 174, Rac-2-(2,6-dioxopiperidin-3-yl)-6-(2-(7-(3-fluoro-4-((1S,2S)-6-hydroxy-2-phenyl-1,2,3,4-tetrahydronaphthalen-1-yl)phenyl)-2,7-diazaspiro[3.5]nonan-2-yl)-2-oxoethyl)-6,7-dihydropyrrolo[3,4-f]isoindole-1,3(2H,5H)-dione]
> 100 | O=C1CCC(N2C(=O)c3cc4c(cc3C2=O)CN(CC(=O)N2CCC3(CC2)CCN(c2c(F)cc([C@@H]5c6ccc(O)cc6CC[C@@H]5c5ccccc5)cc2F)CC3)C4)C(=O)N1 (mixture of isomers) [E 175, Rac-6-(2-(9-(2,6-difluoro-4-((1R,2S)-6-hydroxy-2-phenyl-1,2,3,4-tetrahydronaphthalen-1-yl)phenyl)-3,9-diazaspiro[5.5]undecan-3-yl)-2-oxoethyl)-2-(2,6-dioxopiperidin-3-yl)-6,7-dihydropyrrolo[3,4-f]isoindole-1,3(2H,5H)-dione]
> 100 | O=C1CCC(N2C(=O)c3cc4c(cc3C2=O)CN(CC(=O)N2CCC3(CC2)CCN(c2cc(F)c([C@@H]5c6ccc(O)cc6CC[C@@H]5c5ccccc5)c(F)c2)CC3)C4)C(=O)N1 (mixture of isomers) [E 176, Rac-6-(2-(9-(3,5-difluoro-4-((1S,2S)-6-hydroxy-2-phenyl-1,2,3,4-tetrahydronaphthalen-1-yl)phenyl)-3,9-diazaspiro[5.5]undecan-3-yl)-2-oxoethyl)-2-(2,6-dioxopiperidin-3-yl)-6,7-dihydropyrrolo[3,4-f]isoindole-1,3(2H,5H)-dione]
10 to 100 | O=C1CCC(N2C(=O)c3cc4c(cc3C2=O)CN(CC(=O)N2CCC3(CC2)CCN(c2ccc([C@@H]5c6ccc(O)cc6CC[C@@H]5C5CCCCC5)cc2)CC3)C4)C(=O)N1 (mixture of isomers) [E 177, Rac-6-(2-(9-(4-((1R,2R)-2-cyclohexyl-6-hydroxy-1,2,3,4-tetrahydronaphthalen-1-yl)phenyl)-3,9-diazaspiro[5.5]undecan-3-yl)-2-oxoethyl)-2-(2,6-dioxopiperidin-3-yl)-6,7-dihydropyrrolo[3,4-f]isoindole-1,3(2H,5H)-dione]
10 to 100 | O=C1CCC(N2C(=O)c3cc4c(cc3C2=O)CN(CC(=O)N2CCC3(CC2)CCN(c2ccc([C@@H]5c6ccc(O)cc6CC[C@@H]5C5CCC(F)(F)CC5)cc2)CC3)C4)C(=O)N1 (mixture of isomers) [E 178, Rac-6-(2-(9-(4-((1R,2R)-2-(4,4-difluorocyclohexyl)-6-hydroxy-1,2,3,4-tetrahydronaphthalen-1-yl)phenyl)-3,9-diazaspiro[5.5]undecan-3-yl)-2-oxoethyl)-2-(2,6-dioxopiperidin-3-yl)-6,7-dihydropyrrolo[3,4-f]isoindole-1,3(2H,5H)-dione]

Continued, compound first:

SMILES | DC50 [nM]
O=C1CCC(N2C(=O)c3cc4c(cc3C2=O)CN(C(=O)CN2CCC3(CC2)CCN(c2ccc([C@@H]5c6ccc(O)cc6CC[C@@H]5c5ccccc5)cc2)CC3)CC4)C(=O)N1 (mixture of isomers) [E 161, rac-2-(2,6-dioxopiperidin-3-yl)-6-(2-(9-(4-((1R,2S)-6-hydroxy-2-phenyl-1,2,3,4-tetrahydronaphthalen-1-yl)phenyl)-3,9-diazaspiro[5.5]undecan-3-yl)acetyl)-5,6,7,8-tetrahydro-1H-pyrrolo[3,4-g]isoquinoline-1,3(2H)-dione] | > 100
O=C1CCC(N2C(=O)c3cc4c(cc3C2=O)CN(CC(=O)N2CCC3(CC2)CCN(c2ccc([C@@H]5c6ccc(O)cc6CC[C@@H]5c5ccccc5)cc2)CC3)CC4)C(=O)N1 (mixture of isomers) [E 162, rac-2-(2,6-dioxopiperidin-3-yl)-6-(2-(9-(4-((1R,2S)-6-hydroxy-2-phenyl-1,2,3,4-tetrahydronaphthalen-1-yl)phenyl)-3,9-diazaspiro[5.5]undecan-3-yl)-2-oxoethyl)-5,6,7,8-tetrahydro-1H-pyrrolo[3,4-g]isoquinoline-1,3(2H)-dione] | 10 to 100
O=C1CCC(N2C(=O)c3cc4c(cc3C2=O)CN(CC(=O)N2CC3(CCN(c5ccc([C@@H]6c7ccc(O)cc7CC[C@@H]6c6ccccc6)cc5)CC3)C2)CC4)C(=O)N1 (mixture of isomers) [E 163, rac-2-(2,6-dioxopiperidin-3-yl)-6-(2-(7-(4-((1R,2S)-6-hydroxy-2-phenyl-1,2,3,4-tetrahydronaphthalen-1-yl)phenyl)-2,7-diazaspiro[3.5]nonan-2-yl)-2-oxoethyl)-5,6,7,8-tetrahydro-1H-pyrrolo[3,4-g]isoquinoline-1,3(2H)-dione] | 10 to 100
O=C1CCC(N2C(=O)c3cc4c(cc3C2=O)CN(CC(=O)N2CC3(CCN(c5ccc([C@@H]6c7ccc(O)cc7CC[C@@H]6c6ccc(F)cc6)cc5)CC3)C2)CC4)C(=O)N1 (mixture of isomers) [E 164, rac-2-(2,6-dioxopiperidin-3-yl)-6-(2-(7-(4-((1R,2S)-2-(4-fluorophenyl)-6-hydroxy-1,2,3,4-tetrahydronaphthalen-1-yl)phenyl)-2,7-diazaspiro[3.5]nonan-2-yl)-2-oxoethyl)-5,6,7,8-tetrahydro-1H-pyrrolo[3,4-g]isoquinoline-1,3(2H)-dione] | 10 to 100
O=C1CCC(N2C(=O)c3cc4c(cc3C2=O)CN(CC(=O)N2CCC3(CC2)CCN(c2ccc([C@@H]5c6ccc(O)cc6CC[C@@H]5c5ccc(F)cc5)cc2)CC3)CC4)C(=O)N1 (mixture of isomers) [E 165, rac-2-(2,6-dioxopiperidin-3-yl)-6-(2-(9-(4-((1R,2S)-2-(4-fluorophenyl)-6-hydroxy-1,2,3,4-tetrahydronaphthalen-1-yl)phenyl)-3,9-diazaspiro[5.5]undecan-3-yl)-2-oxoethyl)-5,6,7,8-tetrahydro-1H-pyrrolo[3,4-g]isoquinoline-1,3(2H)-dione] | 10 to 100
O=C1CCC(N2C(=O)c3cc4c(cc3C2=O)CN(C(=O)CN2CC3(CCN(c5ccc([C@@H]6c7ccc(O)cc7CC[C@@H]6c6ccccc6)cc5)CC3)C2)CCC4)C(=O)N1 (mixture of isomers) [E 168, rac-2-(2,6-dioxopiperidin-3-yl)-6-(2-(7-(4-((1R,2S)-6-hydroxy-2-phenyl-1,2,3,4-tetrahydronaphthalen-1-yl)phenyl)-2,7-diazaspiro[3.5]nonan-2-yl)acetyl)-6,7,8,9-tetrahydroazepino[3,4-f]isoindole-1,3(2H,5H)-dione] | > 100
O=C1CCC(N2C(=O)c3cc4c(cc3C2=O)CN(CC(=O)N2CCC3(CC2)CCN(c2ccc([C@@H]5c6ccc(O)cc6CC[C@@H]5c5ccccc5)cc2)CC3)CC4)C(=O)N1 (mixture of isomers) [E 172, rac-2-(2,6-dioxopiperidin-3-yl)-6-(2-(9-(4-((1R,2S)-6-hydroxy-2-phenyl-1,2,3,4-tetrahydronaphthalen-1-yl)phenyl)-3,9-diazaspiro[5.5]undecan-3-yl)-2-oxoethyl)-5,6,7,8-tetrahydro-1H-pyrrolo[3,4-g]isoquinoline-1,3(2H)-dione] | 10 to 100

Source: patent US20240190880A1 (THE REGENTS OF THE UNIVERSITY OF MICHIGAN, priority 2021, published 2024)
